Patent US20240252677A1, “ONE-COMPONENT DELIVERY SYSTEM FOR NUCLEIC ACIDS” (The Trustees of the University of Pennsylvania, priority 2021, published 2024)

What was measured:
[1] = DLS size of dendrimersomes assembled from glycerol-JDs in water at different concentrations; assay type: physicochemical; conditions: for Dh (nm): size distribution by intensity
Description: Assembly of all eight glycerol-JDs was performed by injection of their ethanol solution (50 μL) into 1 mL of Milli-Q water. The size distribution and structure of resulting DSs were analyzed by DLS (FIG. 84) and cryo-TEM. […] In a certain concentration range the size of DSs increased with the concentration of JDs injected in water or buffer. […] The dimensions of the assemblies were identical when the concentrations of the JDs in water were identical. Sizes of assemblies from mixtures of 1R and 1S in different ratios (1:3, 1:1 and 3:1), were also identical (FIG. 84). […] With the exception of the rotation of polarized light, the physical properties of enantiomers and their racemic mixtures must be identical.
Dynamic light scattering (DLS). Hydrodynamic diameters (Dh) of the self-assemblies of dendrimer molecules and their size distributions were measured on a Malvern Instruments particle sizer (Zetasizer® Nano S, Malvern Instruments, UK) equipped with 4 mW He—Ne laser (633 nm) and avalanche photodiode positioned at […] to the beam and temperature controlled cuvette holder. Experiments were performed at 25° C. in triplicate. The distribution of radius was intensity.

[2] = pKa measurements of individual IAJD molecules by titration; assay type: physicochemical; conditions: individual IAJD molecule; for Avg pKa: average of pKa 1-3; for pKa 1: measurement 1; for pKa 2: measurement 2; for pKa: ethanol saturated with NaCl, titrated with 0.1 M aqueous HCl, Table 15
Description: pKa measurements of individual IAJD Molecules was performed as follows. IAJD Molecules were first dissolved in ethanol (Sat. with NaCl) at a concentration of 1.5 mg/mL and the solution volume was 3 mL.
Then 0.1 M HCl solution was added to the above ethanol solution with an increment of 7.5 μL. The resulting pH after each addition of HCl solution was measured by an Thermo Scientific Orion Star A121 meter with Thermo Scientific Orion 8220BNWP pH probe. pKa was determined using the half equivalence point titration.

Question: Which PDI ([1]; JD 0.025 mg·mL−1 in water) does the source give for `CCCCCCCCCCCCOc1cc(OCCCCCCCCCCCC)cc(C(=O)OCC(C)(COC(=O)c2cc(OCCCCCCCCCCCC)cc(OCCCCCCCCCCCC)c2)C(=O)OC(COC(=O)c2cc(OCCOCCOCCOC)c(OCCOCCOCCOC)c(OCCOCCOCCOC)c2)COC(=O)c2cc(OCCOCCOCCOC)c(OCCOCCOCCOC)c(OCCOCCOCCOC)c2)c1` [Compound 4, (3,5)-12G2-BMPA-GC-(achiral)-(3,4,5)-3EO-G1] here?
Answer: 0.391

Question: What about the “Dh (nm)” value ([1]; JD 0.025 mg·mL−1 in water) of the same compound?
Answer: 100 nm

Question: And the PDI ([1]; JD 0.05 mg·mL−1 in water)?
Answer: 0.266

Question: What about the “Dh (nm)” value ([1]; JD 0.05 mg·mL−1 in water) of the same compound?
Answer: 102 nm

Question: What about the PDI ([1]; JD 0.1 mg·mL−1 in water) of the same compound?
Answer: 0.136

Question: And the “Dh (nm)” value ([1]; JD 0.1 mg·mL−1 in water)?
Answer: 119 nm

Question: What about the PDI ([1]; JD 0.25 mg·mL−1 in water) of the same compound?
Answer: 0.180

Question: And the “Dh (nm)” value ([1]; JD 0.25 mg·mL−1 in water)?
Answer: 132 nm

Question: And the PDI ([1]; JD 0.5 mg·mL−1 in water)?
Answer: 0.183

Question: What about the “Dh (nm)” value ([1]; JD 0.5 mg·mL−1 in water) of the same compound?
Answer: 166 nm

Question: And the PDI ([1]; JD 0.75 mg·mL−1 in water)?
Answer: 0.233

Question: What about the “Dh (nm)” value ([1]; JD 0.75 mg·mL−1 in water) of the same compound?
Answer: 210 nm

Question: What about the PDI ([1]; JD 1.0 mg·mL−1 in water) of the same compound?
Answer: 0.291

Question: What about the “Dh (nm)” value ([1]; JD 1.0 mg·mL−1 in water) of the same compound?
Answer: 284 nm

Question: For `CCCCCCCCCCCCOc1cc(OCCCCCCCCCCCC)cc(C(=O)OCC(COC(=O)c2cc(OCCCCCCCCCCCC)cc(OCCCCCCCCCCCC)c2)(COC(=O)c2cc(OCCOCCOCCOC(=O)CCCN(C)C)c(OCCOCCOCCOC)c(OCCOCCOCCOC(=O)CCCN(C)C)c2)NC(=O)c2cc(OCCOCCOCCOC)c(OCCOCCOCCOC)c(OCCOCCOCCOC)c2)c1` [IAJD 41], which “Avg pKa” value [2] is on record?
Answer: 6.36

Question: What about the “pKa 1” value ([2]; titration) of the same compound?
Answer: 6.38

Question: And the “pKa 2” value ([2]; titration)?
Answer: 6.34

Question: For `CCCCCCCCCCCCOc1cc(COC(=O)CCCN2CCN(C)CC2)cc(OCCCCCCCCCCCC)c1` [IAJD 66, 3,5-Bis(dodecyloxy)benzyl 4-(4-methylpiperazin-1-yl)butanoate], which pKa ([2]; titration) is on record?
Answer: 6.37

Question: For `CCCCCCCCCCCCOc1cc(CNC(=O)c2cc(OCCOCCOCCOC(=O)CCCN(C)C)c(OCCOCCOCCOCc3ccccc3)c(OCCOCCOCCOC(=O)CCCN(C)C)c2)cc(OCCCCCCCCCCCC)c1` [IAJD 9], which “Avg pKa” value [2] is on record?
Answer: 6.56

Question: What about the “pKa 1” value ([2]; titration) of the same compound?
Answer: 6.52

Question: And the “pKa 2” value ([2]; titration)?
Answer: 6.52

Question: What about the “pKa 3” value ([2]; titration, measurement 3) of the same compound?
Answer: 6.64

Question: For `CCCCCCCCCCCCOc1cc(COC(=O)CCCN(C)C)cc(OCCCCCCCCCCCC)c1` [IAJD 64, 3,5-Bis(dodecyloxy)benzyl 4-(dimethylamino)butanoate], which pKa ([2]; titration) is on record?
Answer: 7.06

Question: With `CCCCCCCCCCCCOc1cc(OCCCCCCCCCCCC)cc(C(=O)OCC(COC(=O)c2cc(OCCCCCCCCCCCC)cc(OCCCCCCCCCCCC)c2)(COC(=O)c2cc(OCCOCCOCCOC(=O)CCCN(C)C)c(OCCOCCOCCOC(=O)CCCN(C)C)c(OCCOCCOCCOC(=O)CCCN(C)C)c2)NC(=O)c2cc(OCCOCCOCCOC)c(OCCOCCOCCOC)c(OCCOCCOCCOC)c2)c1` [IAJD 42] as the compound, how does the “Avg pKa” value [2] read?
Answer: 6.06

Question: What about the “pKa 1” value ([2]; titration) of the same compound?
Answer: 6.06

Question: What does the source list for `CCCCCCCCCCCCOc1cc(OCCCCCCCCCCCC)cc(C(=O)OCC(COC(=O)c2cc(OCCCCCCCCCCCC)cc(OCCCCCCCCCCCC)c2)OC(=O)C(C)(COC(=O)c2cc(OCCOCCOCCOC)c(OCCOCCOCCOC)c(OCCOCCOCCOC)c2)COC(=O)c2cc(OCCOCCOCCOC)c(OCCOCCOCCOC)c(OCCOCCOCCOC)c2)c1` [Compound 3, (3,5)-12G1-GC-(achiral)-BMPA-(3,4,5)-3EO-G2]?
Answer: PDI ([1]; JD 0.025 mg·mL−1 in water): 0.272; Dh (nm) ([1]; JD 0.025 mg·mL−1 in water): 72 nm; PDI ([1]; JD 0.05 mg·mL−1 in water): 0.241; Dh (nm) ([1]; JD 0.05 mg·mL−1 in water): 97 nm; PDI ([1]; JD 0.1 mg·mL−1 in water): 0.183; Dh (nm) ([1]; JD 0.1 mg·mL−1 in water): 123 nm; PDI ([1]; JD 0.25 mg·mL−1 in water): 0.153; Dh (nm) ([1]; JD 0.25 mg·mL−1 in water): 144 nm; PDI ([1]; JD 0.5 mg·mL−1 in water): 0.152; Dh (nm) ([1]; JD 0.5 mg·mL−1 in water): 162 nm; PDI ([1]; JD 0.75 mg·mL−1 in water): 0.236; Dh (nm) ([1]; JD 0.75 mg·mL−1 in water): 224 nm; PDI ([1]; JD 1.0 mg·mL−1 in water): 0.233; Dh (nm) ([1]; JD 1.0 mg·mL−1 in water): 266 nm

Question: With `CCCCCCCCCCCCOc1cc(CNC(=O)c2cc(OCCOCCOCCOC(=O)CCCN(C)C)c(OCCOCCOCCOC)c(OCCOCCOCCOC(=O)CCCN(C)C)c2)cc(OCCCCCCCCCCCC)c1` [IAJD 4] as the compound, how does the “Avg pKa” value [2] read?
Answer: 6.43

Question: What about the “pKa 1” value ([2]; titration) of the same compound?
Answer: 6.43

Question: Which results are given for `CCCCCCCCCCCCOc1cc(CNC(=O)c2cc(OCCOCCOCCOC)c(OCCOCCOCCOC(=O)CCCN(C)C)c(OCCOCCOCCOC)c2)cc(OCCCCCCCCCCCC)c1` [IAJD 2]?
Answer: Avg pKa [2]: 6.20; pKa 1 ([2]; titration): 6.20

Question: With `CCCCCCCCCCCCOc1cc(OCCCCCCCCCCCC)cc(C(=O)OCC(COC(=O)c2cc(OCCCCCCCCCCCC)cc(OCCCCCCCCCCCC)c2)(COC(=O)c2cc(OCCOCCOCCOC)c(OCCOCCOCCOC)c(OCCOCCOCCOC(=O)CCCN(C)C)c2)NC(=O)c2cc(OCCOCCOCCOC)c(OCCOCCOCCOC)c(OCCOCCOCCOC)c2)c1` [IAJD 38] as the compound, how does the “Avg pKa” value [2] read?
Answer: 6.38

Question: What about the “pKa 1” value ([2]; titration) of the same compound?
Answer: 6.43

Question: What about the “pKa 2” value ([2]; titration) of the same compound?
Answer: 6.32

Question: With `CCCCCCCCCCCCOc1cc(CNC(=O)CCCN2CCN(C)CC2)cc(OCCCCCCCCCCCC)c1` [IAJD 70, N-(3,5-bis(dodecyloxy)benzyl)-4-(4-methylpiperazin-1-yl)butanamide] as the compound, how does the pKa ([2]; titration) read?
Answer: 6.44
